In ChEMBL document CHEMBL1128798, “The in vitro cytotoxicity and DNA alkylating ability of the simplest functional analogues of the seco CC-1065 alkylating subunit” (Bioorg Med Chem Lett, 1995):

Columns and labels:
B16 [1] = assay: Tested in vitro for cytotoxicity against B16 cell line in murine melanoma; type: functional, Mus musculus
B16 [2] = assay: Tested in vitro for cytotoxicity against B16 cell line in murine melanoma activity expressed in IC50; type: functional, cell-based; settings: Mus musculus
CI80-13S cell line = assay: Tested in vitro for cytotoxicity against CI80-13S cell line in DNA cross-linking resistant human ovarian carcinoma; type: functional
Nucleic Acid = assay: Compound was tested in vitro for DNA alkylation intensity; value is given as; type: functional
HeLa = assay: Tested in vitro for cytotoxicity against He La cell line in human cervical carcinoma; type: functional
MM418 = assay: Tested in vitro for cytotoxicity against MM418c15a cell line in human melanoma with high melanin content; type: functional
MM96L = assay: Tested in vitro for cytotoxicity against MM96L cell line in human melanoma; type: functional

Row | SMILES | Cytotoxicity (B16 [1]) | IC50 (B16 [2]) | Cytotoxicity (CI80-13S cell line) | DNA alkylation (Nucleic Acid) | Cytotoxicity (HeLa) | Cytotoxicity (MM418) | Cytotoxicity (MM96L)
1 | Oc1ccc(CCBr)cc1 | 44 µM | 32 µM | 27 µM | value is given as | 18 µM | 25 µM | 16 µM
2 | OCCc1ccc(O)cc1 [TYROSOL] | – | – | – | – | 1420 µM | – | 905 µM
3 | OCCc1cccc(O)c1 | – | – | – | – | 7530 µM | – | 2530 µM
4 | COc1ccc(CCO)cc1 | – | – | – | – | 4420 µM | – | 3330 µM
5 | Oc1cccc(CCI)c1 | – | – | – | – | 19 µM | – | 20 µM
6 | Oc1ccc(CCI)cc1 | – | – | – | value is given as | 33 µM | – | 43 µM
7 | CS(C)(=O)=O [DIMETHYL SULFONE] | – | – | 59 µM | – | 35 µM | 58 µM | 56 µM
8 | COc1ccc(CCCl)cc1 | – | – | – | – | 670 µM | – | 1970 µM
9 | Oc1cccc(CCCl)c1 | – | – | – | – | 450 µM | – | 450 µM
10 | COc1ccc(CCBr)cc1 | – | – | – | – | 220 µM | – | 520 µM
11 | COc1ccc(CCI)cc1 | – | – | – | – | 22 µM | – | 25 µM
12 | Oc1ccc(CCCl)cc1 | – | – | – | – | 32 µM | – | 42 µM
13 | Oc1cccc(CCBr)c1 | – | – | – | – | 75 µM | – | 60 µM
